Experimental data reported in patent US12077503B2, “Substituted cyclic amides and their use as herbicides” (FMC CORPORATION, priority 2015, dated 2024).

Legend:
Type in all cases: in vivo
[1] = tested on: ivy-leaved morning glory (Ipomoea hederacea); assay: Test G Pre-Emergence Protocol; settings: Ipomoea, pre-emergence, 312 h, evaluated after 13 days; for pest or weed control at 62.5 g/ha: 62.5 g ai/ha, 100=total damage to plant, 0=no damage to plant, read-out: Morningglory, Ivy-leaved damage rating; for pest or weed control at 250 g/ha: 250 g ai/ha
Procedure, shortened: (§1)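 Under a 24/16° C day/night regime with 14 h light and 65% humidity, sown pots were sprayed after one day with compound (15.625, 62.5 or 250 g/ha; 50:50 acetone/water, 0.5% Tween 20). Damage was assessed visually 13 days later, 0 to 100.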

[2] = tested on: barnyardgrass (Echinochloa crus-galli); assay: Test G Pre-Emergence Protocol; settings: Echinochloa crus-galli, pre-emergence, 312 h, evaluated after 13 days; for pest or weed control at 15.625 g/ha: 15.625 g ai/ha; for pest or weed control at 15.625 g/ha / pest or weed control at 250 g/ha: read-out: Barnyardgrass damage rating (100=total damage to plant; 0=no damage to plant); for pest or weed control at 62.5 g/ha: 62.5 g ai/ha, 100=total damage to plant, 0=no damage to plant, read-out: Barnyardgrass damage rating; for pest or weed control at 250 g/ha: 250 g ai/ha
Procedure, shortened: as §1

[3] = tested on: giant foxtail (Setaria faberi); assay: Test G Pre-Emergence Protocol; settings: Setaria faberi, pre-emergence, 312 h, evaluated after 13 days; for pest or weed control at 15.625 g/ha: 15.625 g ai/ha; for pest or weed control at 15.625 g/ha / pest or weed control at 250 g/ha: read-out: Foxtail, Giant damage rating (100=total damage to plant; 0=no damage to plant); for pest or weed control at 62.5 g/ha: 62.5 g ai/ha, 100=total damage to plant, 0=no damage to plant, read-out: Foxtail, Giant damage rating; for pest or weed control at 250 g/ha: 250 g ai/ha
Procedure, shortened: as §1

[4] = tested on: velvetleaf (Abutilon theophrasti); assay: Test G Pre-Emergence Protocol; settings: Abutilon theophrasti, pre-emergence, 312 h, evaluated after 13 days; for pest or weed control at 15.625 g/ha: 15.625 g ai/ha; for pest or weed control at 15.625 g/ha / pest or weed control at 250 g/ha: read-out: Velvetleaf damage rating (100=total damage to plant; 0=no damage to plant); for pest or weed control at 62.5 g/ha: 62.5 g ai/ha, 100=total damage to plant, 0=no damage to plant, read-out: Velvetleaf damage rating; for pest or weed control at 250 g/ha: 250 g ai/ha
Procedure, shortened: as §1

[5] = tested on: redroot pigweed (Amaranthus retroflexus); assay: Test G Pre-Emergence Protocol; settings: Amaranthus retroflexus, pre-emergence, 312 h, evaluated after 13 days; for pest or weed control at 15.625 g/ha: 15.625 g ai/ha; for pest or weed control at 15.625 g/ha / pest or weed control at 250 g/ha: read-out: Pigweed, Redroot damage rating (100=total damage to plant; 0=no damage to plant); for pest or weed control at 62.5 g/ha: 62.5 g ai/ha, 100=total damage to plant, 0=no damage to plant, read-out: Pigweed, Redroot damage rating; for pest or weed control at 250 g/ha: 250 g ai/ha
Procedure, shortened: as §1

corn (Zea mays) [6] = assay: Test G Pre-Emergence Protocol; settings: Zea mays, pre-emergence, 312 h, evaluated after 13 days; for plant injury at 15.625 g/ha: 15.625 g ai/ha; for plant injury at 15.625 g/ha / plant injury at 250 g/ha: read-out: Corn damage rating (100=total damage to plant; 0=no damage to plant); for plant injury at 62.5 g/ha: 62.5 g ai/ha, 100=total damage to plant, 0=no damage to plant, read-out: Corn damage rating; for plant injury at 250 g/ha: 250 g ai/ha
Procedure, shortened: as §1

[7] = tested on: ivy-leaved morning glory (Ipomoea hederacea); assay: Test G Post-Emergence Protocol; settings: Ipomoea, post-emergence, 312 h, read-out: Morningglory, Ivy-leaved damage rating; for pest or weed control at 15.625 g/ha: 15.625 g ai/ha, evaluated after 13 days (100=total damage to plant; 0=no damage to plant); for pest or weed control at 62.5 g/ha: 62.5 g ai/ha; for pest or weed control at 62.5 g/ha / pest or weed control at 250 g/ha: evaluated after 13 days, 100=total damage to plant, 0=no damage to plant; for pest or weed control at 250 g/ha: 250 g ai/ha
Procedure, shortened: (§2)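 Values are percent visual injury at 13 days after treatment (0 none, 100 total). Treatment was a post-emergence spray at 15.625, 62.5 or 250 g/ha on 8-day-old pot plants kept at 24/16 °C.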

[8] = tested on: barnyardgrass (Echinochloa crus-galli); assay: Test G Post-Emergence Protocol; settings: Echinochloa crus-galli, post-emergence, 312 h, read-out: Barnyardgrass damage rating; for pest or weed control at 15.625 g/ha: 15.625 g ai/ha, evaluated after 13 days (100=total damage to plant; 0=no damage to plant); for pest or weed control at 62.5 g/ha: 62.5 g ai/ha; for pest or weed control at 62.5 g/ha / pest or weed control at 250 g/ha: evaluated after 13 days, 100=total damage to plant, 0=no damage to plant; for pest or weed control at 250 g/ha: 250 g ai/ha
Procedure, shortened: as §2

[9] = tested on: giant foxtail (Setaria faberi); assay: Test G Post-Emergence Protocol; settings: Setaria faberi, post-emergence, 312 h, read-out: Foxtail, Giant damage rating; for pest or weed control at 15.625 g/ha: 15.625 g ai/ha, evaluated after 13 days (100=total damage to plant; 0=no damage to plant); for pest or weed control at 62.5 g/ha: 62.5 g ai/ha; for pest or weed control at 62.5 g/ha / pest or weed control at 250 g/ha: evaluated after 13 days, 100=total damage to plant, 0=no damage to plant; for pest or weed control at 250 g/ha: 250 g ai/ha
Procedure, shortened: as §2

[10] = tested on: velvetleaf (Abutilon theophrasti); assay: Test G Post-Emergence Protocol; settings: Abutilon theophrasti, post-emergence, 312 h, read-out: Velvetleaf damage rating; for pest or weed control at 15.625 g/ha: 15.625 g ai/ha, evaluated after 13 days (100=total damage to plant; 0=no damage to plant); for pest or weed control at 62.5 g/ha: 62.5 g ai/ha; for pest or weed control at 62.5 g/ha / pest or weed control at 250 g/ha: evaluated after 13 days, 100=total damage to plant, 0=no damage to plant; for pest or weed control at 250 g/ha: 250 g ai/ha
Procedure, shortened: as §2

[11] = tested on: redroot pigweed (Amaranthus retroflexus); assay: Test G Post-Emergence Protocol; settings: Amaranthus retroflexus, post-emergence, 312 h, read-out: Pigweed, Redroot damage rating; for pest or weed control at 15.625 g/ha: 15.625 g ai/ha, evaluated after 13 days (100=total damage to plant; 0=no damage to plant); for pest or weed control at 62.5 g/ha: 62.5 g ai/ha; for pest or weed control at 62.5 g/ha / pest or weed control at 250 g/ha: evaluated after 13 days, 100=total damage to plant, 0=no damage to plant; for pest or weed control at 250 g/ha: 250 g ai/ha
Procedure, shortened: as §2

corn (Zea mays) [12] = assay: Test G Post-Emergence Protocol; settings: Zea mays, post-emergence, 312 h, read-out: Corn damage rating; for plant injury at 15.625 g/ha: 15.625 g ai/ha, evaluated after 13 days (100=total damage to plant; 0=no damage to plant); for plant injury at 62.5 g/ha: 62.5 g ai/ha; for plant injury at 62.5 g/ha / plant injury at 250 g/ha: evaluated after 13 days, 100=total damage to plant, 0=no damage to plant; for plant injury at 250 g/ha: 250 g ai/ha
Procedure, shortened: as §2

[13] = read-out: Morningglory, Ivy-leaved damage rating (100=total damage to plant; 0=no damage to plant)

CCOc1cc(C2CN(C)C(=O)C2C(=O)Nc2cccc(F)c2F)ccc1OC (centres unmarked) [Compound 1719]
pest or weed control at 62.5 g/ha [1]: 0% | pest or weed control at 250 g/ha [1, 13]: 0% | pest or weed control at 15.625 g/ha [2]: 30% | pest or weed control at 62.5 g/ha [2]: 70% | pest or weed control at 250 g/ha [2]: 90% | pest or weed control at 15.625 g/ha [3]: 70% | pest or weed control at 62.5 g/ha [3]: 90% | pest or weed control at 250 g/ha [3]: 90% | pest or weed control at 15.625 g/ha [4]: 0% | pest or weed control at 62.5 g/ha [4]: 0% | pest or weed control at 250 g/ha [4]: 0% | pest or weed control at 15.625 g/ha [5]: 0% | pest or weed control at 62.5 g/ha [5]: 0% | pest or weed control at 250 g/ha [5]: 20% | plant injury at 15.625 g/ha (corn (Zea mays) [6]): 0% | plant injury at 62.5 g/ha (corn (Zea mays) [6]): 10% | plant injury at 250 g/ha (corn (Zea mays) [6]): 60% | pest or weed control at 15.625 g/ha [7]: 0% | pest or weed control at 62.5 g/ha [7]: 10% | pest or weed control at 250 g/ha [7]: 20% | pest or weed control at 15.625 g/ha [8]: 0% | pest or weed control at 62.5 g/ha [8]: 60% | pest or weed control at 250 g/ha [8]: 80% | pest or weed control at 15.625 g/ha [9]: 60% | pest or weed control at 62.5 g/ha [9]: 80% | pest or weed control at 250 g/ha [9]: 80% | pest or weed control at 15.625 g/ha [10]: 0% | pest or weed control at 62.5 g/ha [10]: 0% | pest or weed control at 250 g/ha [10]: 0% | pest or weed control at 15.625 g/ha [11]: 0% | pest or weed control at 62.5 g/ha [11]: 0% | pest or weed control at 250 g/ha [11]: 0% | plant injury at 15.625 g/ha (corn (Zea mays) [12]): 0% | plant injury at 62.5 g/ha (corn (Zea mays) [12]): 0% | plant injury at 250 g/ha (corn (Zea mays) [12]): 60%

C=Cc1cc(Oc2ccccc2)cc([C@@H]2CN(C)C(=O)[C@H]2C(=O)Nc2cccc(F)c2F)c1 (racemic) [Compound 1826]
pest or weed control at 15.625 g/ha ([1]; 15.625 g ai/ha, read-out: Morningglory, Ivy-leaved damage rating (100=total damage to plant; 0=no damage to plant)): 0% | pest or weed control at 62.5 g/ha [1]: 0% | pest or weed control at 250 g/ha [1, 13]: 0% | pest or weed control at 15.625 g/ha [2]: 0% | pest or weed control at 62.5 g/ha [2]: 70% | pest or weed control at 250 g/ha [2]: 80% | pest or weed control at 15.625 g/ha [3]: 20% | pest or weed control at 62.5 g/ha [3]: 80% | pest or weed control at 250 g/ha [3]: 90% | pest or weed control at 15.625 g/ha [4]: 0% | pest or weed control at 62.5 g/ha [4]: 0% | pest or weed control at 250 g/ha [4]: 0% | pest or weed control at 15.625 g/ha [5]: 0% | pest or weed control at 62.5 g/ha [5]: 0% | pest or weed control at 250 g/ha [5]: 20% | plant injury at 15.625 g/ha (corn (Zea mays) [6]): 10% | plant injury at 62.5 g/ha (corn (Zea mays) [6]): 10% | plant injury at 250 g/ha (corn (Zea mays) [6]): 20% | pest or weed control at 15.625 g/ha [7]: 0% | pest or weed control at 62.5 g/ha [7]: 20% | pest or weed control at 250 g/ha [7]: 10% | pest or weed control at 15.625 g/ha [8]: 0% | pest or weed control at 62.5 g/ha [8]: 10% | pest or weed control at 250 g/ha [8]: 70% | pest or weed control at 15.625 g/ha [9]: 0% | pest or weed control at 62.5 g/ha [9]: 40% | pest or weed control at 250 g/ha [9]: 80% | pest or weed control at 15.625 g/ha [10]: 0% | pest or weed control at 62.5 g/ha [10]: 0% | pest or weed control at 250 g/ha [10]: 10% | pest or weed control at 15.625 g/ha [11]: 0% | pest or weed control at 62.5 g/ha [11]: 0% | pest or weed control at 250 g/ha [11]: 50% | plant injury at 15.625 g/ha (corn (Zea mays) [12]): 0% | plant injury at 62.5 g/ha (corn (Zea mays) [12]): 20% | plant injury at 250 g/ha (corn (Zea mays) [12]): 50%
